Test results published in US20230242591A1, “REGULATORY T CELL EPITOPES AND D[…]-COV-2 ANTIGENS” (EPIVAX, INC., priority 2020, published 2023).

Tested on: CD4+ effector memory T cells
Format: cell-based, human

PSFYVYSRVKNLNSSRVPDLLV (Severe acute respiratory syndrome coronavirus 2) [SEQ ID NO: 7]
suppression of proliferation and activation of CD4+ effector T cells: Suppressed Proliferation and Activation
